The values that follow come from US4302448A, “Secretin preparations with intensified and protracted action, process for their manufacture, their use as well as dihydroxybenzoyl-L-tyrosine” (Hoechst Aktiengesellschaft, priority 1979, dated 1981).

This assay relates to Pancreatic juice secretion of the rat. The assay can be described thus: Pancreatic juice secretion of the rat after subcutaneous administration of secretin with depot bodies. The assay is classed as in vivo. The conditions noted are these: rat, subcutaneous, 5 CU/kg secretin + 10 mg depot body/animal; for Δ% vs. control (percentage by which the pancreatic secretion is above the basal secretion after 5 hours): control=100%, measure of depot effect; for Rel. Intensity of effect over 5 hours (total pancreatic juice secretion over 5 hours as compared with control): control (0.9% of NaCl)=1. On the procedure: Secretin preparations for subcutaneous application which contained the depot bodies specified in the following Table were tested in animal experiments. In the experimental procedure chosen, 5 to 8 male rats weighing 300 to 500 g each are administered subcutaneously 5 CU/kg of secretin (CU means clinical unit) and 10 mg of the depot body to be tested each in aqueous solution or suspension.
The animals remain without food for 18 hours prior to the test, but they are given water ad libitum. Under urethane anaesthesia (5 ml/kg i.m. of 25% urethane) the abdomen is opened by median section after tracheotomy, and the pylorus is ligated. The ductus choledochus is tied off in its proximal part near the porta hepatis, and the bile is led into the duodenum via a polyethylene tube of a diameter of […]. A cannula or catheter is inserted into the distal part of the bile duct, into which the numerous pancreatic ducts open, immediately before it opens into the duodenum, and the volume of the secretion running off is measured in 60 minute intervals. Following a preliminary run of 60 minutes the preparations are administered.
L means the compound known from literature and characterized by the melting point, optionally UV, IR or NMR. A to C relate to the preparation according to Example 1, process A to C. These compounds were characterized by ultimate analysis. The third column indicates the percentage by which the pancreatic secretion is above the basal secretion after 5 hours (calculated on the control=100%). This value is a measure for the depot effect of the depot body tested. Column 4 indicates the intensification of the secretin effect, with the total pancreatic juice secretion having been given over 5 hours as compared with the control (0.9% of NaCl)=1.

In the case of “2,8-Dihydroxy-3-naphthoyl-diethanolamine”, the “Δ% vs. control (percentage by which the pancreatic secretion is above the basal secretion after 5 hours)” value is reported as 77% and the “Rel. Intensity of effect over 5 hours (total pancreatic juice secretion over 5 hours as compared with control)” value was 9.1.

Take “3,5-Dihydroxyphenylcarbonyl-ethylphenyl-3,5-dimethyl phosphate”: the “Δ% vs. control (percentage by which the pancreatic secretion is above the basal secretion after 5 hours)” value turned out to be 62% and the “Rel. Intensity of effect over 5 hours (total pancreatic juice secretion over 5 hours as compared with control)” value came out at 3.4. As for `O=C(c1ccc2ccccc2c1O)N(CCO)CCO` [1-Hydroxy-2-naphthoic acid-diethanolamide], the “Δ% vs. control (percentage by which the pancreatic secretion is above the basal secretion after 5 hours)” value is on record as 79% and the “Rel. Intensity of effect over 5 hours (total pancreatic juice secretion over 5 hours as compared with control)” value is listed as 8.1.

Consider `O=C(NCCO)c1ccc2ccccc2c1O` [1-Hydroxy-2-naphthoic acid-ethanolamide], for which the “Δ% vs. control (percentage by which the pancreatic secretion is above the basal secretion after 5 hours)” value came to 74% and the “Rel. Intensity of effect over 5 hours (total pancreatic juice secretion over 5 hours as compared with control)” value is given as 8.0.

Regarding `O=C(c1ccc(O)cc1O)c1ccc(O)cc1O` [2,2'-4,4'-Tetrahydroxybenzophenone], the “Δ% vs. control (percentage by which the pancreatic secretion is above the basal secretion after 5 hours)” value amounted to 58% and the “Rel. Intensity of effect over 5 hours (total pancreatic juice secretion over 5 hours as compared with control)” value came to 4.8. Consider `O=C(c1ccccc1)c1ccc(O)c(O)c1O` [2,3,4-Trihydroxy-benzophenone], for which the “Δ% vs. control (percentage by which the pancreatic secretion is above the basal secretion after 5 hours)” value was 109% and the “Rel. Intensity of effect over 5 hours (total pancreatic juice secretion over 5 hours as compared with control)” value was 9.1. As for `CC(=O)c1ccc(O)cc1O` [2,4-Dihydroxy-acetophenone], the “Δ% vs. control (percentage by which the pancreatic secretion is above the basal secretion after 5 hours)” value amounted to 70% and the “Rel. Intensity of effect over 5 hours (total pancreatic juice secretion over 5 hours as compared with control)” value came out at 6.1.

For the compound `O=C(c1ccccc1)c1ccc(O)cc1O` [2,4-Dihydroxy-benzophenone], the “Δ% vs. control (percentage by which the pancreatic secretion is above the basal secretion after 5 hours)” value is 163% and the “Rel. Intensity of effect over 5 hours (total pancreatic juice secretion over 5 hours as compared with control)” value came to 9.1. As for `O=C(NCc1ccccc1)c1ccc(O)cc1O` [2,4-Dihydroxybenzoic acid-benzylamide], the “Δ% vs. control (percentage by which the pancreatic secretion is above the basal secretion after 5 hours)” value was 64% and the “Rel. Intensity of effect over 5 hours (total pancreatic juice secretion over 5 hours as compared with control)” value is recorded as 6.8. `O=C(O)c1ccc(O)cc1O` [2,4-Dihydroxybenzoic acid]: the “Δ% vs. control (percentage by which the pancreatic secretion is above the basal secretion after 5 hours)” value came out at 28% and the “Rel. Intensity of effect over 5 hours (total pancreatic juice secretion over 5 hours as compared with control)” value is 7.1. Regarding `O=C(N[C@@H](Cc1ccc(O)cc1)C(=O)N(CCO)CCO)c1ccc(O)cc1O` [2,4-Dihydroxybenzoyl-L-tyrosine-diethanolamide], the “Δ% vs. control (percentage by which the pancreatic secretion is above the basal secretion after 5 hours)” value stood at 47% and the “Rel. Intensity of effect over 5 hours (total pancreatic juice secretion over 5 hours as compared with control)” value came out at 8.7. Regarding `COC(=O)[C@H](Cc1ccc(O)cc1)NC(=O)c1ccc(O)cc1O` [2,4-Dihydroxybenzoyl-L-tyrosine-methyl ester], the “Δ% vs. control (percentage by which the pancreatic secretion is above the basal secretion after 5 hours)” value is reported as 70% and the “Rel. Intensity of effect over 5 hours (total pancreatic juice secretion over 5 hours as compared with control)” value is 7.8. On the same counts, the results for `CCCCNC(=O)[C@H](Cc1ccc(O)cc1)NC(=O)c1ccc(O)cc1O` [2,4-Dihydroxybenzoyl-L-tyrosine-n-butylamide] are 87% and 8.7. Consider `O=C(N[C@@H](Cc1ccc(O)cc1)C(=O)O)c1ccc(O)cc1O` [2,4-Dihydroxybenzoyl-L-tyrosine], for which the “Δ% vs. control (percentage by which the pancreatic secretion is above the basal secretion after 5 hours)” value came to 84%. `O=C(c1cc(Cl)ccc1O)N(CCO)CCO` [2-Hydroxy-5-chloro-benzoic acid-diethanolamide]: the “Δ% vs. control (percentage by which the pancreatic secretion is above the basal secretion after 5 hours)” value is listed as 77% and the “Rel. Intensity of effect over 5 hours (total pancreatic juice secretion over 5 hours as compared with control)” value is given as 7.3. Turning to `NC(=O)c1ccccc1O` [2-Hydroxy-benzoic acid amide], the “Δ% vs. control (percentage by which the pancreatic secretion is above the basal secretion after 5 hours)” value came out at 51% and the “Rel. Intensity of effect over 5 hours (total pancreatic juice secretion over 5 hours as compared with control)” value is reported as 8.0. In the case of `O=C(O)c1ccccc1O` [2-Hydroxy-benzoic acid], the “Δ% vs. control (percentage by which the pancreatic secretion is above the basal secretion after 5 hours)” value is reported as 6% and the “Rel. Intensity of effect over 5 hours (total pancreatic juice secretion over 5 hours as compared with control)” value is listed as 4.5.

On to `O=C(c1ccccc1)c1ccccc1O` [2-Hydroxy-benzophenone], for which the “Δ% vs. control (percentage by which the pancreatic secretion is above the basal secretion after 5 hours)” value is on record as 74% and the “Rel. Intensity of effect over 5 hours (total pancreatic juice secretion over 5 hours as compared with control)” value is listed as 7.2.

As for `O=C(O)c1cc(O)nc2ccccc12` [2-Hydroxy-quinoline-4-carboxylic acid], the “Δ% vs. control (percentage by which the pancreatic secretion is above the basal secretion after 5 hours)” value is listed as 5% and the “Rel. Intensity of effect over 5 hours (total pancreatic juice secretion over 5 hours as compared with control)” value is reported as 5.0. For `O=C(CO)c1ccccc1` [2-Hydroxyacetophenone], the “Δ% vs. control (percentage by which the pancreatic secretion is above the basal secretion after 5 hours)” value was found to be 38% and the “Rel. Intensity of effect over 5 hours (total pancreatic juice secretion over 5 hours as compared with control)” value is 7.6. `O=C(O)c1cc(O)c(O)c(O)c1` [3,4,5-Trihydroxybenzoic acid]: the “Δ% vs. control (percentage by which the pancreatic secretion is above the basal secretion after 5 hours)” value stood at 28% and the “Rel. Intensity of effect over 5 hours (total pancreatic juice secretion over 5 hours as compared with control)” value is listed as 5.0. In the case of `NC(=O)c1cc(O)cc(O)c1` [3,5-Dihydroxybenzoic acid amide], the “Δ% vs. control (percentage by which the pancreatic secretion is above the basal secretion after 5 hours)” value was 34% and the “Rel. Intensity of effect over 5 hours (total pancreatic juice secretion over 5 hours as compared with control)” value is reported as 6.2. For the compound `O=C(Nc1cccc(O)c1)c1cc(O)cc(O)c1` [3,5-Dihydroxybenzoic acid-3-hydroxy-anilide], the “Δ% vs. control (percentage by which the pancreatic secretion is above the basal secretion after 5 hours)” value is listed as 49% and the “Rel. Intensity of effect over 5 hours (total pancreatic juice secretion over 5 hours as compared with control)” value turned out to be 6.2. Turning to `O=C(O)c1cc(O)cc(O)c1` [3,5-Dihydroxybenzoic acid], the “Δ% vs. control (percentage by which the pancreatic secretion is above the basal secretion after 5 hours)” value came out at 25% and the “Rel. Intensity of effect over 5 hours (total pancreatic juice secretion over 5 hours as compared with control)” value amounted to 6.6. As for `O=C(NC(Cc1ccc(O)cc1)C(=O)N(CCO)CCO)c1cc(O)cc(O)c1` [3,5-Dihydroxybenzoyl-L-tyrosine-diethanolamide], the “Δ% vs. control (percentage by which the pancreatic secretion is above the basal secretion after 5 hours)” value worked out at 76% and the “Rel. Intensity of effect over 5 hours (total pancreatic juice secretion over 5 hours as compared with control)” value turned out to be 7.6.

As for `NS(=O)(=O)c1cccc(NC(=O)c2ccccc2O)c1` [3-(2-Hydroxybenzoylamino)-benzene-sulfonamide], the “Δ% vs. control (percentage by which the pancreatic secretion is above the basal secretion after 5 hours)” value was found to be 81% and the “Rel. Intensity of effect over 5 hours (total pancreatic juice secretion over 5 hours as compared with control)” value worked out at 8.1.

As for `CC(=O)c1cccc(O)c1` [3-Hydroxy-acetophene], the “Δ% vs. control (percentage by which the pancreatic secretion is above the basal secretion after 5 hours)” value is reported as 54% and the “Rel. Intensity of effect over 5 hours (total pancreatic juice secretion over 5 hours as compared with control)” value stood at 9.0.

For the compound `O=C(c1ccccc1)c1cccc(O)c1` [3-Hydroxy-benzophenone], the “Δ% vs. control (percentage by which the pancreatic secretion is above the basal secretion after 5 hours)” value was found to be 79% and the “Rel. Intensity of effect over 5 hours (total pancreatic juice secretion over 5 hours as compared with control)” value is 8.0. For `O=C(O)c1cccc(O)c1` [3-Hydroxybenzoic acid], the “Δ% vs. control (percentage by which the pancreatic secretion is above the basal secretion after 5 hours)” value stood at 47% and the “Rel. Intensity of effect over 5 hours (total pancreatic juice secretion over 5 hours as compared with control)” value was determined as 4.0.
